Assay results published in patent publication US20070014736A1, “Methods of delivering corticotroph-derived glycoprotein hormone” (priority 2005, published 2007).

Assays:
lipolysis in mice = experiment: Stimulation of lipolysis in vivo, serum glycerol and FFA; settings: fasted mice, IP; CGH 300 μg/kg, CL 1 mg/kg
Protocol: CGH, the β3-adrenoreceptor agonist CL 316,243 (CL), and saline vehicle were examined for stimulation of lipolysis in mice following an overnight fast. […] Lipolysis was assessed as the percent change in serum glycerol or FFA over the 2 hour period. The serum glycerol and FFA for the vehicle groups decreased by 7%±9% and 24%±15%, respectively. The serum glycerol for the CGH group increased by 57%±20%; p=0.0254, and the FFA levels increased 25%±5%; p=0.0188.
C57 BL/6 male mice, age 19 weeks, were grouped to normalize weight (n=4 for each treatment; average group weight=37.8 g±0.4 g). Mice were housed individually for 18 hours prior to treatment, at which time food was withdrawn, with free access to water given. At approximately 8 a.m., the subjects were anesthetized with halothane and blood samples taken by retro-orbital eye bleed. The blood was allowed to clot, and the serum was separated by centrifugation and frozen for later analysis. Test substances were administered by IP injection in a volume of 0.1 ml, and the animals replaced in their cages for 2 hours with free access to water. At 2 hours, the mice were sacrificed and blood drawn by cardiac puncture.
For measuring free fatty acids in serum, the method previously described for measuring free fatty acids in conditioned media was followed, with the following modifications. Wako reagents A and B were reconstituted to 2× the recommended concentration. 75 μl of Wako reagent A were added to 5 μl of oleic acid standard plus 5 μl of water. 75 μl of Wako reagent A were added to 5 μl of serum plus 5 μl of methanol (to mirror the oleic acid standard conditions). The 96-well plates were incubated at 37° C. for 10 minutes. 150 μl of Wako reagent B were added to each well. The 96-well plates were incubated at 37° C. for 10 minutes. The 96-well plates were allowed to sit at room temperature for 5 minutes. The 96-well plates were centrifuged in a Beckman Coulter Allegra 6R centrifuge at 3250×g for 5 minutes to remove air bubbles. The absorbance at 530 nm was measured on the Wallac Victor2 Multilabel counter.
For measuring glycerol in serum, the method previously described for measuring glycerol in conditioned media was followed, with the modifications described below.
Sigma reagent A was reconstituted to 0.5× the recommended concentration. 200 μl of Sigma reagent A were added to 10 μl of glycerol standard. 200 μl of Sigma reagent A were added to 5 μl of serum plus 5 μI of water. The 96-well plates were incubated for 15 minutes at room temperature. The 96-well plates were centrifuged in a Beckman Coulter Allegra 6R centrifuge at 3250×g for 5 minutes to remove air bubbles. The absorbance at 530 nm was measured on the Wallac Victor2 Multilabel counter.

obese male ob/ob mice = experiment: Chronic 28-day treatment of ob/ob mice; type: in vivo
Protocol: Summary: CGH was administered daily for 28 days to obese male ob/ob mice. Mice were also treated with vehicle saline and thyroxine. Data was obtained for food intake, blood glucose, serum insulin, serum lipids, and serum thyroid hormone levels. At sacrifice, animals were examined for changes in liver pathology, and gross histology. […] Evaluation of liver histology sections was performed to examine the effect of CGH-mediated lipolysis on liver steatosis.
11-week old male ob/ob mice were individually caged and given a standard lab chow (4% fat) with free access to food and water. Animals were assigned to a treatment group (n=7−8, average weight 54.3±0.3 g/group), kept on a 12 hour dark cycle (6 PM to 6 AM), and injected each day between 7 and 9 AM. Chow consumed by each animal was weighed twice weekly. All animals received treatments IP in an injection volume of 0.1 ml. CGH was administered at 250 μg/kg, dissolved in sterile saline. Thyroxine (T4) was administered at 1.5 μg/mouse for 4 days, reduced to 1 μg/mouse for 10 days, and returned to 1.5 μg/mouse for the next 14 days. The vehicle controls received sterile saline. TSH was obtained from Genzyme Pharmaceuticals (Thyrogen®, Catalog number 36778; Genzyme Corporation, Cambridge, Mass.), and T4 obtained from Calbiochem, Inc. (EMD Biosciences, catalog number 61205, San Diego, Calif.) All blood draws were performed by retro-orbital puncture under isoflurane anesthesia.
After 25 days of treatment as described above, blood was sampled from all treated animals, serum separated, and analyzed for total T4 by a commercially available kit (Biocheck, Burlingame, Calif.). After 25 days of treatment, the vehicle T4 levels were 5.14±0.08 μg/dl. The CGH-treated group had T4 levels of 7.25±1.2 μg/dl, and the thyroxine-treated group had T4 levels of 9.04±0.47 μg/dl.
Subject animals were fasted for 4 hours at the beginning of the light cycle, and serum was obtained at treatment day 25 under isoflurane anesthesia. Serum Glucose levels were determined with the Cholestech LDX blood analyzer (Cholestech Corporation, Hayward Calif.), and serum insulin levels by ELISA. Serum glucose levels for vehicle and thyroxine treated groups were 306±22 and 295±23 mg/dl, respectively. […] Serum insulin levels for the vehicle and thyroxine treated groups were 33.5±1.8 and 25.9±1.7 ng/ml, respectively.
Subject animals were fasted for 4 hours at the beginning of the light cycle, and serum was obtained at treatment day 25 under isoflurane anesthesia. Triglyceride and total cholesterol levels were determined with the Cholestech LDX blood analyzer. Serum triglyceride levels for the vehicle controls were 143.7±23 mg/dl. […] Total cholesterol levels in the vehicle-treated and thyroxine-treated groups were 198±13 and 194±15 mg/dl, respectively.
Liver sections were dissected from all treatment groups described above and mounted in paraffin following fixation with NBS-formalin. Sections were mounted and stained with hematotoxylin and eosin (H&E) for visualization of hepatic structural changes. The extent of liver steatosis was evaluated on a four-point scale, from 0 to 3, with zero displaying no signs of liver steatosis, and a […], represented pronounced macrovesicular and microvesicular steatosis. […] Average scores given to the groups were vehicle (4), thyroxine (3), and CGH (1.5). […] The CGH treated sections appear to have regained hallmarks of normal hepatocyte architecture in only 28 days of treatment, with areas containing hepatocytes without lipid-laden inclusions in the cytoplasm of the cell.

[1] = test system: LPS-induced mild endotoxemia mouse model; experiment: LPS-induced mild endotoxemia mouse model, serum cytokines; type: in vivo, mice; settings: 2 mg/kg monomer, data not shown
Protocol: An in vivo experiment was designed to examine the effect of CGH in a mouse model of LPS-induced mild endotoxemia. This model mimics acute endotoxemia/sepsis by challenging mice with a low, non-lethal dose of bacterial endotoxin (lipopolysaccharide, LPS). Serum is collected at various timepoints (1-8 hours) after intraperitoneal LPS injection and analyzed for altered expression of a wide variety of pro- and anti-inflammatory cytokines and acute phase proteins that mediate the inflammatory response. The model provides a means to assess the potential anti-inflammatory effects of therapeutic candidates during a robust inflammatory response. To initially assess the model, we measured proinflammatory cytokines in a pilot experiment to collect reference data for the model.
C57B1/6 mice (Charles River Laboratories; 5 mice/group) were treated i.p. with PBS, 0.2 mg/kg CGH in PBS, or 2 mg/kg CGH in PBS 1 hour prior to LPS challenge. The mice were then challenged with 25 ug of LPS i.p. and bled at 1 hour and 4 hours after LPS injection. Serum was analyzed for TNF[…] (1 hour) and IL-6 (4 hours) levels by ELISA.
To determine if CGH would potentiate the effect of a sub-maximal dose of glucocorticoid, groups of 10 C57B1/6 mice each were treated i.p. with PBS, 0.15 or 1.5 mg/kg Dex, 2 mg/kg CGH, or a combination of CGH and low or high doses of Dex, 1 hour prior to injection of 25 ug LPS i.p. As shown in TABLE 3 (Expt #2), either 2 mg/kg CGH or 1.5 mg/kg Dex treatment alone (1 hour prior to LPS) caused a significant drop in serum TNFα levels at 1 hour, as observed in previous experiments. The effects of CGH administered in conjunction with Dex on inhibition of TNFα production were greater than either dose of Dex alone.

TSHR = experiment: Binding of 125I-CGH and 125I-TSH to BHK cells expressing the TSHR; set-up: species or system murine or human; settings: increasing amounts of unlabeled protein
Protocol: BHK cells expressing murine or human TSHRs were cultured in Dulbecco's Modified Eagle's Medium [DMEM (high glucose)] containing 5% fetal bovine serum, 1% Glutamax, 1% sodium pyruvate, 250 nM methotrexate, and Geneticin ( 1/100). […] Plates of cells were placed on ice and washed twice with 1.0-2.0 ml of ice-cold PBS. […] Specific binding was determined in the presence (nonspecific binding) and absence (total binding) of unlabeled rhCGH (25.0 μg/ml) or TSH (10 μg/ml). Binding reactions were terminated by removing the binding medium and the cell monolayers were washed three times with 1.0-2.0 ml of ice-cold PBS containing 1.0 mg/ml BSA and twice with 1.0-2.0 ml of ice cold albumin-free PBS. Cells were solubilized in 1.0 ml of 1.0N NaOH for 10 min at room temperature and cell-associated radioactivity was determined in a gamma counter. The measured radioactivity was normalized to cell number that was determined on plates of cells cultured in parallel. Binding data were analyzed by non-linear regression using Prizm 3.0 (GraphPad Software, San Diego, Calif.).

## C[C@H](Cc1ccc2c(c1)OC(C(=O)[O-])(C(=O)[O-])O2)NC[C@H](O)c1cccc(Cl)c1.[Na+].[Na+] [CL, CL 316,243, reference compound]
Lipolysis in mice
  percent change (increase) in serum FFA over 2 hours: 82%±16%
  percent change (increase) in serum glycerol over 2 hours: 168%±23%

## N[C@@H](Cc1cc(I)c(Oc2cc(I)c(O)c(I)c2)c(I)c1)C(=O)O [thyroxine, reference compound]
Obese male ob/ob mice; H&E liver sections, 28 days, n=4
  liver steatosis average score: 3
Obese male ob/ob mice; after 25 days of treatment
  serum total T4 levels: 9.04 ± 0.47 µg/dL
Obese male ob/ob mice; day 25, fasted 4 hours
  Serum glucose levels: 295 ± 23 mg/dL
  Serum insulin levels: 25.9 ± 1.7 ng/mL
  Serum triglyceride levels: 198 ± 43 mg/dL
  Total cholesterol levels: 194 ± 15 mg/dL
Obese male ob/ob mice; ob/ob mice, CGH 250 μg/kg IP daily, T4 1-1.5 μg/mouse
  Food intake: 6.1±0.17 grams/day of chow

B1: zsig51: alpha subunit of CGH, glycoprotein hormone alpha2, previously called Zsig51 (protein)
chain: QEAVIPGCHLHPFNVTVRSDRQGTCQGSHVAQACVGHCESSAFPSRYSVLVASGYRHNITSVSQCCTISGLKKVKVQLQCVGSRREELEIFTARACQCDMCRLSRY
[1]
  effect on serum TNFα or IL-6 levels: neither of these monomers had any effect
TSHR
  reduction of the amount of 125I-CGH bound by unlabeled competitor: neither unlabeled rhTSH (FIG. 1C) nor unlabeled rhGPHA2 nor rhGPHB5 (data not shown) reduced the amount of ^125I-CGH bound

B2: zlut1: beta subunit of CGH, glycoprotein hormone beta 5, previously called Zlut1 (protein)
chain: ASSGNLRTFVGCAVREFTFLAKKPGCRGLRITTDACWGRCETWEKPILEPPYIEAHHRVCTYNETKQVTVKLPNCAPGVDPFYTYPVAIRCDCGACSTATTECETI
[1]
  effect on serum TNFα or IL-6 levels: neither of these monomers had any effect
TSHR
  reduction of the amount of 125I-CGH bound by unlabeled competitor: neither unlabeled rhTSH (FIG. 1C) nor unlabeled rhGPHA2 nor rhGPHB5 (data not shown) reduced the amount of ^125I-CGH bound
